Values joined by “and” are separate entries in the source; they are usually repeats but may differ in a detail not shown here. Identical values can stand only once.
Key:
[1] = target: T1, rat TRPV1 (Rattus norvegicus, UniProt O35433); test: capsaicin-induced 45Ca2+-uptake in TRPV1-NIH3T3 cells; assay type: cell-based
T1 construct: expressed in transfected cells
Procedure: (§1) Assays were carried out in 2×10^−5 M extracellular Ca^2+ in 96 well plate formats at room temperature (22°C) for 10 min with robotic liquid handling. […] We hypothesized that calmodulin antagonists and some registered drugs may exert their blocking effect with another mechanisms on TRPV1 and not necessarily on their conventional target.
(§2) TRPV1-NIH3T3 mouse fibroblast line, ectopically expressing the rat TRPV1 was established previously.
(§3) Vanilloid agonist inducible calcium transport was assayed in adherent cell lines ectopically expressing the C-terminally ε-tagged rat TRPV1 (3×10^4 cells/well) and primary cultures prepared from embryonic DRG, seeded in poly-D lysine/collagen coated 96 well plates. […] The previously established cell lines and standardized DRG cultures were extensively characterized for functional cell-based TRPV1 studies [1]–[4]. Immediately before the transport assay, cells were adapted to room temperature (20°C) for 5 min in HCM. ^45Ca^2+-uptake was performed for 10 min at 20°C in HCM using 0.1 µCi ^45Ca^2+ as radioactive tracer in a 100 µl final volume. To stop ^45Ca^2+-uptake, cells were rapidly changed back into 0.2 ml HCM, washed 4 additional times with 0.2 ml HCM, and then lysed in 80 µl/well RIPA buffer (50 mM Tris-HCl, pH 7.5, 150 mM NaCl, 1% Triton X-100, 0.5% deoxycholate, 0.1% SDS, 5 mM EDTA) for 30 min [1]–[4]. Aliquots of the solubilized cell extracts were mixed with 120 µl Microscint-40 and counted in a 96 well plate liquid scintillation counter (TopCount-NXT, Packard).

[2] = target: TRPV1 (Rattus norvegicus, UniProt O35433); test: capsaicin-induced Ca2+-uptake in human TRPV1-HaCaT keratinocyte line; assay type: cell-based; design: expressed in transfected cells; conditions: data not shown
TRPV1, sequence (O35433 whole entry): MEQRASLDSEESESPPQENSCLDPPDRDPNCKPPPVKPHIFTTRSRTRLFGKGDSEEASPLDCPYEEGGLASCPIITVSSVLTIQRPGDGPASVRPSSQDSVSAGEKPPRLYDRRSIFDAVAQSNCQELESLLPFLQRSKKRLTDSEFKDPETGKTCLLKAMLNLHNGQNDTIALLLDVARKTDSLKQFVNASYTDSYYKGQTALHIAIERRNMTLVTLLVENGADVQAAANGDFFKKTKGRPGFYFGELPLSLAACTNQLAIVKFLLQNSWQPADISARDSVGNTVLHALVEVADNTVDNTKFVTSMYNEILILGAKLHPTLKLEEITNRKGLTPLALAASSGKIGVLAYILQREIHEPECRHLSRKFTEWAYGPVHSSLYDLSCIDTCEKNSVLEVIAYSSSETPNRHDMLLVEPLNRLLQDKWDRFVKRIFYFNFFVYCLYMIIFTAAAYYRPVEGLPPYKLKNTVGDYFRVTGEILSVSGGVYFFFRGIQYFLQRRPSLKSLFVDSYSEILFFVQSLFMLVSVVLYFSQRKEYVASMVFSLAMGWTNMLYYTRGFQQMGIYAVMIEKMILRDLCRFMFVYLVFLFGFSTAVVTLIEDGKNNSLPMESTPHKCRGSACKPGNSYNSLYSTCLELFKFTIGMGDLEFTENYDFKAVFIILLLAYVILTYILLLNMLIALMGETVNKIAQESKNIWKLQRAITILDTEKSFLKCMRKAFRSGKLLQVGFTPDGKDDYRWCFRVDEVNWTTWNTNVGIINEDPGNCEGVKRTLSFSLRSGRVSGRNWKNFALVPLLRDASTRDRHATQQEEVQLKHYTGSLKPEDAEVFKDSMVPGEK
Procedure: as §1, §2
as §3, with “To stop ^45Ca^2+-uptake, cells were rapidly changed back into 0.2 ml HCM, washed 4 additional times with 0.2 ml HCM, and then lysed in 80 µl/well RIPA buffer (50 mM Tris-HCl, pH 7.5, 150 mM NaCl, 1% Triton X-100, 0.5% deoxycholate, 0.1% SDS, 5 mM EDTA) for 30 min [1]–[4].” left out

[3] = system: kainic acid receptors; test: kainic acid-evoked responses of spinal dorsal horn neurons, microiontophoresis; assay type: in vivo; conditions: anesthetized rat, iontophoresis, mean±SD, n = 16
Procedure: (§4) In another set of experiments, effects of calmidazolium were investigated on the responses of dorsal horn neurons evoked by NMDA and kainic acid agonists of different glutamate receptors, well characterized transducers of pain signals, more centrally. Neuronal firing responses to iontophoresed NMDA or kainic acid were typically fast in onset and short in duration (Fig. 8). Ejection currents for these excitatory agents were delivered alternately in every 2 min and were selected to produce a maximal peak height of 50–70 spikes/s which corresponded to 300–400 action potentials per stimulation epoch. Iontophoretic application of calmidazolium produced significant reduction in responses to both NMDA and kainic acid. Maximal inhibition of NMDA- or kainic acid -evoked responses were reached 15–20 min after calmidazolium application and remained so during the rest of the 2 hour long experiment. […]
(§5) Extracellular single-neuron recordings were made in chloral hydrate-anesthetized ([…] initial dose, i.p., with supplemental doses as required) male Wistar rats weighing between 350–450 g. […] Rectal temperature as well as the temperature of the mineral oil were monitored with temperature probes and kept at 37°C by a warm water-heated blanket beneath the rat and an infrared heat lamp from above. […]

[4] = system: NMDA receptors; test: NMDA-evoked responses of spinal dorsal horn neurons, microiontophoresis; assay type: in vivo; conditions: anesthetized rat, iontophoresis, mean±SD, n = 16
Procedure: as §4, §5

[5] = system: intermediate Ca2+-activated K+ channels (IKCa); conditions: human erythrocytes; cited from earlier work
[6] = increasing concentrations of capsaicin

T1 sequence (O35433 whole entry): as above

Clc1ccc(C(c2ccc(Cl)cc2)n2cc[n+](CC(OCc3ccc(Cl)cc3Cl)c3ccc(Cl)cc3Cl)c2)cc1 (centres unmarked) [calmidazolium]
antagonist activity on capsaicin-induced Ca2+-uptake (in words) ([1]; 2 µM capsaicin): full antagonists | IC50 ([1]; 2 µM capsaicin, 10 min, 2×10^−5 M extracellular Ca2+, room temperature, read-out: IC50, inhibition of capsaicin-induced 45Ca2+-uptake): 7 µM and ~2 µM | concentration above which Ca2+-transport was almost completely abolished [1, 6]: > 2.5 µM | kinetics of Ca2+-transport inhibition [1, 6]: decreased Vmax | efficacy on TRPV1 (in words) [2]: µM scale | responses to kainic acid, % of pre-calmidazolium baseline control [3]: 47±20% | responses to NMDA, % of pre-calmidazolium baseline control [4]: 13±12% | activity on IKCa channels (in words) [5]: inactive

Reference: paper PMC1890308, “Anti-calmodulins and Tricyclic Adjuvants in Pain Therapy Block the TRPV1 Channel” (PLoS ONE, 2007)
